Assays:
[1] = European Patent 13,376; cited from earlier work
[2] = tested on: Normal human epidermal keratinocytes (NHEK); experiment: Inhibition of NHEK proliferation, BrdU incorporation (in vitro DNA synthesis); type: cell-based; conditions: 18-24 hours; for inhibition at 100 µM: 10^-4 M; for inhibition at 10 µM: 10^-5 M
Method: Cells: Normal human epidermal keratinocytes (NHEK, Clonetics Corp., San Diego, Calif.).
Labelling Reagent: Aqueous solution of 5-bromo-2'-deoxyuridine and 5-fluoro-2'-deoxyuridine (Amersham Corp., II).
Peroxidase-anti-mouse Immunoglobulin (Ig from pooled sheep antisera, Amersham Corp., II).
Peroxidase substrate: ABTS (2,2'-azino-di-(3-ethyl-benzthiazoline sulphonate)! Amersham Corp., II).
Compounds: Compounds are dissolved in absolute ethanol (final concentration≤0.1%). Various drug concentrations are prepared in thymidine free keratinocyte growth medium (KGM without hydrocortisone, Clonetics Corp., Calif.) in the presence of BrdU.
Dynatech MR 7000 microplate reader with 410 nm filter.
Keratinocytes are seeded into 96-well flat bottom (6.4 mm diameter) culture dishes at 5,000 cells/well. The cells are allowed to grow (2-3days) and then dosed with various concentrations of compounds prepared in KGM without thymidine, without hydrocortisone in the presence of BrdU (1:200). After 18-24 hours at 37° C., 5% CO2, the cells are washed with warm PBS and fixed with acetic acid/ethanol for 30 minutes at room temperature. After washing the wells with PBS/0.1% Tween-20, the remaining electrostatic sites on the polystyrene plates are blocked by 3% BSA in PBS/0.1% Tween-20. Anti-bromodeoxyuridine antibody solution with nuclease for denaturing DNA is added to each well and allowed to incubate for 2 hours at 37° C., 5% CO2. The plates were again washed with PBS/0.1% Tween-20 and then incubated at room temperature with peroxidase lined anti-mouse immunoglobulin (1:600). After washing off the second antibody, 1 mM ABTS substrate solution is added to all wells until the desired color intensity (green) is achieved. The color development is stopped by the addition of a Stopping Agent. The absorbance is then measured at 410 nm with a microplate reader using cells in wells not exposed to BrdU as blanks.
The intensity of the color reaction is proportional to the BrdU incorporated by proliferating cells. The amount of BrdU incorporated in treated cells in wells is compared to those of untreated controls as follows: [formula]

[3] = Acute toxicity after intraperitoneal administration, NMRI mouse; conditions: in vivo, ip, 3 weeks, Litchfield and Wilcox
Method: The acute toxicity after intraperitoneal administration of the test substances was determined with NMRI mice (20 to 25 g) and SD rats (120 to 195 g). The test substance was suspended in a 1% strength sodium carboxymethylcellulose solution. The different dosages of the test substance were administered to the mice in a volume of 10 ml/kg of body weight and to the rats in a volume of 5 ml/kg of body weight. Per dosage, 10 animals were used. After 3 weeks, the acute toxicity was determined by the method of Litchfield and Wilcox.

psoriasis patients = conditions: cited from earlier work

Compound | anti-inflammatory property [1] | inhibition at 100 µM [2] [%] | inhibition at 10 µM [2] [%] | inhibition at 1 µM ([2]; 10^-6 M) [%] | IC50 [2] [µM] | LD50 at 504 h [3] [mg/kg] | most limiting side effect (psoriasis patients; in vivo, po) | side effects (psoriasis patients; in vivo, po) | success rate in severe psoriasis (psoriasis patients; oral, patients with severe psoriasis)
Cc1oncc1C(=O)Nc1ccc(C(F)(F)F)cc1 [Compound 1, N-(4-trifluoromethylphenyl)-5-methylisoxazole-4-carboxamide] | anti-inflammatory | 87 | 22 | 12 | 18 |  |  |  | 
C/C(O)=C(\C#N)C(=O)Nc1ccc(C(F)(F)F)cc1 [Compound 2, N-(4-trifluoromethylphenyl)-2-cyano-3-hydroxycrotonamide] |  | 84 | 49 |  | 15.5 | 150 |  |  | 
cyclosporine A |  |  |  |  |  |  | kidney dysfunction | a number of side effects, most of which are transient and not serious | high success rate

Source: US5504084A, “Pharmaceutical for the treatment of skin disorders” (priority 1994, dated 1996)
